The record followed here is patent publication US10633418B2, “Cross-linked peptides containing non-peptide cross-linked structure, method for synthesizing cross-linked peptides, and novel organic compound used in method” (JITSUBO Co., Ltd., priority 2011, dated 2020).

One series relates to carboxy peptidase. Briefly: Decomposition by carboxy peptidase (resistance to peptidase). In kind it is in vitro ADME. As to conditions: carboxy peptidase (isolated enzyme, SIGMA); enzyme solution 1 U/ml in PBS, peptide 0.2 mg/ml, 37° C., HPLC; time at which half of the peptide was decomposed; read-out: half period by carboxy peptidase (t1/2) (converted). Here is the method: (§1) Resistance to a peptidase of a peptide of the present invention was investigated using a carboxy peptidase and chymotrypsin. Resistance to a peptidase was measured as described below.
(Decomposition by Carboxy Peptidase)
A carboxy peptidase purchased from SIGMA was treated with PBS to prepare an enzyme solution of 1 U/ml, which was then kept warm at 37° C. in a water bath. Then, a peptide solution having a concentration adjusted to 5 mg/ml with DMSO: pure water=1:1 mixed solvent was treated with PBS(−) to obtain a concentration of 1 mg/ml, and the enzyme solution and the peptide solution were mixed at 4:1 so as to give a peptide final concentration of 0.2 mg/ml. Thereafter, these were reacted quickly at 37° C. With time, the reaction solution was sampled each in an amount of 0.1 ml, and a reaction stopping solution (25% TFA in acetonitrile, 20 μL) was added to stop the reaction. Samples were analyzed by HPLC, and decomposition of a peptide by the peptidase was measured. […] Time at which half of the peptide added was decomposed was measured.

A further series addresses T1, chymotrypsin (Bos taurus, UniProt P00766).
T1 construct: purchased SIGMA
The series can be described thus: Decomposition by chymotrypsin (resistance to peptidase). As to conditions: chymotrypsin (isolated enzyme, SIGMA), pH 8; enzyme solution 4 U/ml in 0.1M Tris-HCl (pH8.0), peptide 0.2 mg/ml, 37° C., HPLC; read-out: half period by chymotrypsin (t1/2). It counts as in vitro ADME. As to the method:
as §1
(Decomposition by Chymotrypsin)
Chymotrypsin purchased from SIGMA was treated with 0.1M Tris-HCl (pH8.0) to prepare an enzyme solution of 4 U/ml, which was then kept warm at 37° C. in a water bath. Then, a peptide solution treated with DMSO: pure water=1:1 to obtain a concentration of 5 mg/ml was treated with 0.1M Tris-HCl (pH8.0) to give a concentration of 1 mg/ml, and the enzyme solution and the peptide solution were mixed at 4:1 so as to give a peptide final concentration of 0.2 mg/ml. Thereafter, these were reacted quickly at 37° C. With time, the reaction solution was sampled each in an amount of 0.1 ml, and a reaction stopping solution (25% TFA in acetonitrile, 20 μL) was added to stop the reaction. Samples were analyzed by HPLC, and decomposition of a peptide by chymotrypsin was measured. Sampling was conducted at 0, 0.5 minutes, 1 minute and 2 minutes, and when decomposition of 50% or more was not obtained at 2 minutes, sampling was conducted further at 0.5 hours, 1 hour, 3 hours, and time at which half of the peptide added was decomposed was measured.

Each structure is given as a SMILES string. Numbered stars: 1 amine (or outer) side, 2 acyl side, 3 side chain; on linkers, the order of the positions; unused ones are H or OH. Bridge positions count the residues as written; N and C are the ends. Square brackets hold non-standard residues; d marks the D form. Peptide text beside a SMILES is read from it. Nle(6-ylidene) = O=C([C@H](CCCC=[*:3])N[*:1])[*:2]

For `CC(=O)N1CCCC[C@@H](C(=O)N[C@@H](Cc2ccc(O)cc2)C(=O)O)NC(=O)[C@H](CC(C)C)NC(=O)[C@H](Cc2ccc(O)cc2)NC(=O)[C@H](CCC(N)=O)NC(=O)[C@H](CO)NC(=O)[C@H](Cc2c[nH]c3ccccc23)NC(=O)CN(C(=O)[C@@H](N)Cc2ccc(O)cc2)CCCC1` [Bdev-19], the half-life at 0.2 mg/ml with carboxy peptidase was 2.97 min; on chymotrypsin, 0.97 min.
In the case of `CC(C)C[C@@H]1NC(=O)[C@H](Cc2ccc(O)cc2)NC(=O)[C@H](CCC(N)=O)NC(=O)[C@H](CO)NC(=O)[C@H](Cc2c[nH]c3ccccc23)NC(=O)[C@@H](NC(=O)[C@@H](N)Cc2ccc(O)cc2)CCC/C=C\CCC[C@@H](C(=O)N[C@@H](Cc2ccc(O)cc2)C(=O)O)NC1=O` [Comp. 3] (H-Y[Nle(6-ylidene)]WSQYL[Nle(6-ylidene)]Y-OH; staple (Z) 2-8), the half-life at 0.2 mg/ml was 4740 min in the series with carboxy peptidase and 2.07 min at chymotrypsin.
